Experiments:
Type in all cases: cell-based, Human
[1] = test system: H1581 (FGFR1 amp); test: In vitro growth inhibition of H1581 tumor cells (MTT/CCK8); conditions: Homo sapiens, NCI-H1581; in vitro growth inhibition (or induction of apoptosis), cells cultured 3 to 5 days, MTT (CCK8); read-out: IC50 H1581 (FGFR1 amp)
Description: (§1) Tumor cell lines are an effective model for studying in vitro tumor growth inhibition. In the present invention, a representative tumor cell line was selected to determine the cell growth inhibition activity of the present compound. All cell lines used were from ATCC, DSMZ, and cell banks of the Chinese Academy of Sciences. Cell culture conditions and methods were in accordance with the requirements of each cell line. Cells were subcultured in vitro for no more than 3 generations each time, and as required, single-clone purification and identification of cell lines could be carried out.
(§2) The cell culture media used were RPMI1640 (Gibco), DMEM (Gibco), MEM (Gibco), L15 (Gibco), IMDM (Gibco), McCOY'S5A, and William's (Gibco). 5-20% fetal bovine serum (Gibco), 1% double antibiotic, 2 mM glutamine, or 1 mM sodium pyruvate were added. The names, species, major gene characteristics, culture media and cell sources of the cell lines used are shown in table 1, wherein “amp” refers to gene amplification. “+++” refers to gene overexpression. The main genetic characteristics of cells were obtained from the COSMIC Cell Lines Project and related research papers, respectively.
(§3) Adherent cells were digested with 0.25% trypsin-EDTA (Gibco). Suspension culture cells were collected by centrifugation (1700 rpm, 3 minutes). The supernatant was discarded and the cells were counted. According to each cell growth cycle, different concentrations of cells were prepared (5˜10×10^4 cells per ml), and inoculated to 96-well plates (Corning), with 100 μl per well, and incubated overnight at 37° C., 5% CO2. The next day, the test compound was added to the cultured cells (2 wells in parallel). The final concentration of the solvent was less than 1/1,000. The cells were further cultured for 3 to 5 days and assayed by MTT.
(§4) The compound was stored at a concentration of 10 mM at −20° C. and diluted to 2- or 10-fold series prior to use. BGJ398 and AC220 were synthesized according to the methods of WO2006420A1 and US2007232604A1, respectively.
(§5) The adherent cells were taken out from the cell culture medium, and immediately added to a freshly prepared complete medium containing 10% CCK8 (5% FBS), 100 ul per hole. The suspended cells were directly added to a CCK8 reagent until reaching a final concentration of 10% and cultured for 1 to 4 hours.
(§6) T=optical density of drug-treated cell wells−optical density of blank control wells; T0=optical density of cell wells before drug treatment−optical density of blank control wells; C=optical density of solvent control wells−optical density of blank control wells. […] The experiments were repeated 1 to 3 times and a statistical analysis of data was conducted.

[2] = test system: KATO III (FGFR2 amp); test: In vitro growth inhibition of KATO III tumor cells (MTT/CCK8); conditions: Homo sapiens, KATO III; in vitro growth inhibition (or induction of apoptosis), cells cultured 3 to 5 days, MTT (CCK8); read-out: IC50 KATO III (FGFR2 amp)
Description: as §1, §2, §3, §4, §5, §6

[3] = test system: MOLM-13 (FLT3-ITD); test: In vitro growth inhibition of MOLM-13 tumor cells (MTT/CCK8); conditions: Homo sapiens, MOLM-13; in vitro growth inhibition (or induction of apoptosis), cells cultured 3 to 5 days, MTT (CCK8); read-out: IC50 MOLM-13 (FLT3-ITD)
Description: as §1, §2, §3, §4, §5, §6

Row | IC50 [1] | IC50 [2] | IC50 [3] | SMILES
1 | 9.01 nM | 1.97 nM | 0.095 nM | COCCOc1cc2nccc(Oc3ccc(NC(=O)Nc4cc(C(C)(C)C)n[nH]4)cc3)c2cc1NC(C)=O [Compound 116, N-[4-{4-[3-(5-tert-butyl-2H-pyrazol-3-yl)-ureido]-phenoxy}-7-(2-methoxy-ethoxy)-quinolin-6-yl]-acetamide]
2 | 9.72 nM | 0.17 nM | 0.25 nM | COCCOc1cc2nccc(Oc3ccc(NC(=O)Nc4cc(C(C)(C)C)nn4C)cc3)c2cc1NC(C)=O [Compound 117, N-[4-{4-[3-(5-tert-butyl-2-methyl-2H-pyrazol-3-yl)-ureido]-phenoxy}-7-(2-methoxy-ethoxy)-quinolin-6-yl]-acetamide]
3 | 19.3 nM | 0.38 nM | 0.11 nM | COCCOc1cc2nccc(Oc3ccc(NC(=O)Nc4cc(C(C)(C)C)nn4C4CC4)cc3)c2cc1NC(C)=O [Compound 118]
4 | 78.9 nM | 6.87 nM | < 0.05 nM | COCCOc1cc2nccc(Oc3ccc(NC(=O)Nc4cc(C(C)(C)C)nn4CCN(C)C)cc3)c2cc1NC(C)=O [Compound 119, N-[4-(4-{3-[5-tert-butyl-2-(2-dimethylamino-ethyl)-2H-pyrazol-3-yl]-ureido}-phenoxy)-7-(2-methoxyethoxy)-quinolin-6-yl]-acetamide]
5 | 78.6 nM | 13.5 nM | 0.55 nM | COCCOc1cc2nccc(Oc3ccc(NC(=O)Nc4cc(C(C)(C)C)nn4C4CCNCC4)cc3)c2cc1NC(C)=O [Compound 120, N-[4-{4-[3-(5-tert-butyl-2-piperidin-4-yl-2H-pyrazol-3-yl)-ureido]-phenoxy}-7-(2-methoxy-ethoxy)-quinolin-6-yl]-acetamide]
6 | 19.5 nM | 0.5 nM | 0.61 nM | COCCOc1cc2nccc(Oc3ccc(NC(=O)Nc4cc(C(C)(C)C)nn4C4CCN(C)CC4)cc3)c2cc1NC(C)=O [Compound 121]
7 | 69.4 nM | 0.27 nM | 0.6 nM | COCCOc1cc2nccc(Oc3ccc(NC(=O)Nc4cc(C(C)(C)C)nn4CCN4CCOCC4)cc3)c2cc1NC(C)=O [Compound 122]
8 | 9.1 nM | < 0.05 nM | 1.22 nM | COCCOc1cc2nccc(Oc3ccc(NC(=O)Nc4cc(C(C)(C)C)nn4CCN4CCOCC4)c(Cl)c3)c2cc1NC(C)=O [Compound 123, N-[4-(4-{3-[5-tert-butyl-2-(2-morpholin-4-yl-ethyl)-2H-pyrazol-3-yl]-ureido}-3-chloro-phenoxy)-7-(2-methoxy-ethoxy)-quinolin-6-yl]-acetamide]
9 | 4.6 nM | 0.31 nM | 1.01 nM | COCCOc1cc2nccc(Oc3ccc(NC(=O)Nc4cc(C(C)(C)C)nn4C)c(Cl)c3)c2cc1NC(C)=O [Compound 124, N-[4-{4-[3-(5-tert-butyl-2-methyl-2H-pyrazol-3-yl)-ureido]-3-chloro-phenoxy}-7-(2-methoxy-ethoxy)-quinolin-6-yl]-acetamide]
10 | 1.41 nM | 0.41 nM | 7.62 nM | COCCOc1cc2nccc(Oc3ccc(NC(=O)Nc4cc(C(C)(C)C)nn4C4CCN(C)CC4)c(Cl)c3)c2cc1NC(C)=O [Compound 126, N-[4-(4-{3-[5-tert-butyl-2-(1-methyl-piperidin-4-yl)-2H-pyrazol-3-yl]-ureido}-3-chloro-phenoxy)-7-(2-methoxy-ethoxy)-quinolin-6-yl]-acetamide]
11 | 1.26 nM | 0.27 nM | 2.56 nM | COCCOc1cc2nccc(Oc3ccc(NC(=O)Nc4cc(C(C)(C)C)nn4CCN(C)C)c(Cl)c3)c2cc1NC(C)=O [Compound 127, N-[4-{4-[3-(5-tert-butyl-2-dimethylamino-ethyl-2H-pyrazol-3-yl)-ureido]-3-chloro-phenoxy}-7-(2-methoxy-ethoxy)-quinolin-6-yl]-acetamide]
12 | 2.01 nM | 0.1 nM | 3.91 nM | COCCOc1cc2nccc(Oc3ccc(NC(=O)Nc4cc(C(C)(C)C)n[nH]4)c(F)c3)c2cc1NC(C)=O [Compound 128, N-[4-{4-[3-(5-tert-butyl-2H-pyrazol-3-yl)-ureido]-3-fluoro-phenoxy}-7-(2-methoxy-ethoxy)-quinolin-6-yl]-acetamide]
13 | 4.78 nM | 0.34 nM | 4.88 nM | COCCCOc1cc2nccc(Oc3ccc(NC(=O)Nc4cc(C(C)(C)C)n[nH]4)c(Cl)c3)c2cc1NC(C)=O [Compound 129, N-[4-{4-[3-(5-tert-butyl-2H-pyrazol-3-yl)-ureido]-3-chloro-phenoxy}-7-(3-methoxy-propoxy)-quinolin-6-yl]-acetamide]
14 | 1.12 nM | 0.54 nM | 4.96 nM | CC(=O)Nc1cc2c(Oc3ccc(NC(=O)Nc4cc(C(C)(C)C)n[nH]4)c(Cl)c3)ccnc2cc1OCCCN1CCN(C)CC1 [Compound 130, N-{4-{4-[3-(5-tert-butyl-2H-pyrazol-3-yl)-ureido]-3-chloro-phenoxy}-7-[3-(4-methy-piperazin-1-yl)-propoxy]-quinolin-6-yl}-acetamide]
15 | 19.5 nM | 11.6 nM | 14.7 nM | CC(=O)Nc1cc2c(Oc3ccc(NC(=O)Nc4cc(C(C)(C)C)n[nH]4)c(Cl)c3)ccnc2cc1OCCO [Compound 131]
16 | 3.91 nM | 1.34 nM | 0.98 nM | CC(=O)Nc1cc2c(Oc3ccc(NC(=O)Nc4cc(C(C)(C)C)n[nH]4)c(Cl)c3)ccnc2cc1OCCN1CCOCC1 [Compound 132, N-[4-{4-[3-(5-tert-butyl-2H-pyrazol-3-yl)-ureido]-3-chloro-phenoxy}-7-(2-morpholin-4-yl-ethoxy)-quinolin-6-yl]-acetamide]
17 | 8.04 nM | 1.56 nM | 1.13 nM | COCCOc1cc2nccc(Oc3ccc(NC(=O)Nc4cc(C(C)(C)C)n[nH]4)c(C)c3)c2cc1NC(C)=O [Compound 133, N-[4-{4-[3-(5-tert-butyl-2H-pyrazol-3-yl)-ureido]-3-methyl-phenoxy}-7-(2-methoxy-ethoxy)-quinolin-6-yl]-acetamide]
18 | 12.4 nM | 0.3 nM | < 0.05 nM | COCCOc1cc2nccc(Oc3ccc(NC(=O)Nc4cc(C(C)(C)C)nn4C4CC4)cc3F)c2cc1NC(C)=O [Compound 134]
19 | 19.5 nM | 0.22 nM | 0.11 nM | COCCOc1cc2nccc(Oc3ccc(NC(=O)Nc4cc(C(C)(C)C)nn4C)cc3Cl)c2cc1NC(C)=O [Compound 135, N-[4-{4-[3-(5-tert-butyl-2-methyl-2H-pyrazol-3-yl)-ureido]-2-chloro-phenoxy}-7-(2-methoxy-ethoxy)-quinolin-6-yl]-acetamide]
20 | 39 nM | 0.4 nM | 0.05 nM | COCCOc1cc2nccc(Oc3ccc(NC(=O)Nc4cc(C(C)(C)C)nn4CCN4CCOCC4)cc3F)c2cc1NC(C)=O [Compound 136, N-[4-(4-{3-[5-tert-butyl-2-(2-morpholin-4-yl-ethyl)-2H-pyrazol-3-yl]-ureido}-2-fluoro-phenoxy)-7-(2-methoxy-ethoxy)-quinolin-6-yl]-acetamide]
21 | 41.2 nM | 1.21 nM | 0.34 nM | COCCOc1cc2nccc(Oc3ccc(NC(=O)Nc4cc(C(C)(C)C)nn4CCN4CCOCC4)cc3Cl)c2cc1NC(C)=O [Compound 137, N-[4-(4-{3-[5-tert-butyl-2-(2-morpholin-4-yl-ethyl)-2H-pyrazol-3-yl]-ureido}-2-chloro-phenoxy)-7-(2-methoxy-ethoxy)-quinolin-6-yl]-acetamide]
22 | 97.3 nM | 18.2 nM | 21.3 nM | CC(C)(C)c1cc(NC(=O)Nc2ccc(Oc3ccnc4cc(OCCCN5CCOCC5)c(C(N)=O)cc34)cc2Cl)[nH]n1 [Compound 138, 4-{4-[3-(5-tert-butyl-2H-pyrazol-3-yl)-ureido]-3-chloro-phenoxy}-7-(3-morpholin-4-yl-propoxy)-quinolin-6-carboxamide]
23 | 3.44 nM | 1.14 nM | 9.87 nM | CN1CCN(CCCOc2cc3nccc(Oc4ccc(NC(=O)Nc5cc(C(C)(C)C)nn5C5CCCC5)c(Cl)c4)c3cc2C(N)=O)CC1 [Compound 139]

Reference: patent publication US10800741B2 (ANCUREALL PHARMACEUTICAL (SHANGHAI) CO., LTD., priority 2017, dated 2020)
